Reference: patent US20260297085A1, “1 H-PYRROLO[2,3-B]PYRIDIN-4-YL]-2-OXOPYRROLIDINE-3-CARBONITRILE DERIVATIVES AS TYROSINE KINASE 2 (TYK2) INHIBITORS FOR THE TREATMENT OF INFLAMMATORY DISEASES” (BIOGEN MA INC., priority 2023, published 2026)
Counter-ions that a name gives are not always drawn.

How the values were obtained:
[1] = molecular target: Tyk2 kinase activity on STAT4 in NK92 cells (Homo sapiens, UniProt P29597); assay: pSTAT4 cell assay (MSD; NK92 cells, 30 ng/mL IL2 stimulation); type: cell-based; conditions: 30 ng/mL IL2, 15 minutes
Outline: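 NK92, serum-starved; cpd 1 hr, 10-pt 4-fold from 10 μM; IL2 30 ng/mL 15 min; lyse; MSD with anti-STAT4 Abs; IC50 by 4-PL fit.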

[2] = molecular target: T1, human TYK2 kinase domain (JH1) (Homo sapiens, UniProt P29597); assay: JH1 biochemical assay for TYK2 (ADP-Glo kinase assay, recombinant JH1 catalytic domain, JAK3-974 peptide, 10 μM ATP); conditions: JH1 kinase domain, ADP-Glo
T1 construct: recombinantly generated catalytic kinase (also known as JH1) domain of human JAK1, JAK2, JAK3 and TYK2
T1 sequence (P29597 897-1176 limits assumed): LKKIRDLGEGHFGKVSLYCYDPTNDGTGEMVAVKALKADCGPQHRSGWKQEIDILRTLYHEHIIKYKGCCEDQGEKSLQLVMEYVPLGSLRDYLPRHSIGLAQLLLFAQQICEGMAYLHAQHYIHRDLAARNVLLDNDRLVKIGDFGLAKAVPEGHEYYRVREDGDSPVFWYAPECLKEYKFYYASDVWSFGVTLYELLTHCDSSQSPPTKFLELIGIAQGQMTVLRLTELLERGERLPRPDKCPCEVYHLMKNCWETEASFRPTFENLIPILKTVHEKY
Outline: (§1)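 Reactions ran 100 min with 50 μM substrate peptide (JAK3-342 for JAK1 at 4 nM enzyme; JAK3-974 for JAK2 0.2 nM, JAK3 0.3 nM, TYK2 2 nM), and ADP formed was read by ADP-Glo luminescence. Eleven-point 3-fold series from 10 or 1 μM; IC50 fitted by 4-parameter logistic model.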

[3] = molecular target: JAK2 kinase activity on STAT5 in TF1 cells (Homo sapiens, UniProt O60674); assay: pSTAT5 cell assay (MSD; TF1 cells, 30 ng/mL IL-3 stimulation); type: cell-based; conditions: 30 ng/mL IL-3, 15 minutes
Description: The inhibitory potency of compounds of the disclosure against the JAK2 kinase activity on STAT5 was evaluated using an MSD-platform plate-based assay format. TF1 cells natively expressing STAT5 and JAK2 were serum-starved to reduce background phosphorylation levels, then cells were treated with compounds of disclosure for 1 hour with a 10-point four-fold dilution series starting at 10 μM. Cells were then stimulated with 30 ng/mL IL-3 for 15 minutes. Cells were then lysed and pSTAT5 levels were quantitated using an MSD plate-based assay with anti-STAT5 antibodies. The data were normalized and the percent activity versus log concentration of compound was fitted with a 4-parameter logistic model to generate a curve and an IC50 value.

[4] = molecular target: JAK1 kinase activity on STAT3 in TF1 cells (Homo sapiens, UniProt P23458); assay: pSTAT3 cell assay (MSD; TF1 cells, 30 ng/mL IL-6 stimulation); type: cell-based; conditions: 30 ng/mL IL-6, 15 minutes
Description: The inhibitory potency of compounds of the disclosure against the JAK1 kinase activity on STAT3 was evaluated using an MSD-platform plate-based assay format. TF1 cells natively expressing STAT3 and JAK1 were serum-starved to reduce background phosphorylation levels, then cells were treated with compounds of the disclosure for 1 hour with a 10-point four-fold dilution series starting at 10 μM. Cells were then stimulated with 30 ng/mL interleukin 6 (IL-6) for 15 minutes. Cells were lysed and pSTAT3 levels were quantitated using an MSD plate-based assay with anti-STAT3 antibodies. The data were normalized and the percent activity versus log concentration of compound was fitted with a 4-parameter logistic model to generate IC50 curves.

[5] = molecular target: T2, human JAK3 kinase domain (JH1) (Homo sapiens, UniProt P52333); assay: JH1 biochemical assay for JAK3 (ADP-Glo kinase assay, recombinant JH1 catalytic domain, JAK3-974 peptide, 4 μM ATP); conditions: JH1 kinase domain, ADP-Glo
T2 construct: recombinantly generated catalytic kinase (also known as JH1) domain of human JAK1, JAK2, JAK3 and TYK2
Outline: as §1

[6] = molecular target: T3, human JAK1 kinase domain (JH1) (Homo sapiens, UniProt P23458); assay: JH1 biochemical assay for JAK1 (ADP-Glo kinase assay, recombinant JH1 catalytic domain, JAK3-342 peptide, 35 μM ATP); conditions: JH1 kinase domain, ADP-Glo
T3 construct: recombinantly generated catalytic kinase (also known as JH1) domain of human JAK1, JAK2, JAK3 and TYK2
Outline: as §1

[7] = molecular target: T4, human JAK2 kinase domain (JH1) (Homo sapiens, UniProt O60674); assay: JH1 biochemical assay for JAK2 (ADP-Glo kinase assay, recombinant JH1 catalytic domain, JAK3-974 peptide, 15 μM ATP); conditions: JH1 kinase domain, ADP-Glo
T4 construct: recombinantly generated catalytic kinase (also known as JH1) domain of human JAK1, JAK2, JAK3 and TYK2
Outline: as §1

Sequence of JAK2 kinase activity on STAT5 in TF1 cells (O60674 whole entry): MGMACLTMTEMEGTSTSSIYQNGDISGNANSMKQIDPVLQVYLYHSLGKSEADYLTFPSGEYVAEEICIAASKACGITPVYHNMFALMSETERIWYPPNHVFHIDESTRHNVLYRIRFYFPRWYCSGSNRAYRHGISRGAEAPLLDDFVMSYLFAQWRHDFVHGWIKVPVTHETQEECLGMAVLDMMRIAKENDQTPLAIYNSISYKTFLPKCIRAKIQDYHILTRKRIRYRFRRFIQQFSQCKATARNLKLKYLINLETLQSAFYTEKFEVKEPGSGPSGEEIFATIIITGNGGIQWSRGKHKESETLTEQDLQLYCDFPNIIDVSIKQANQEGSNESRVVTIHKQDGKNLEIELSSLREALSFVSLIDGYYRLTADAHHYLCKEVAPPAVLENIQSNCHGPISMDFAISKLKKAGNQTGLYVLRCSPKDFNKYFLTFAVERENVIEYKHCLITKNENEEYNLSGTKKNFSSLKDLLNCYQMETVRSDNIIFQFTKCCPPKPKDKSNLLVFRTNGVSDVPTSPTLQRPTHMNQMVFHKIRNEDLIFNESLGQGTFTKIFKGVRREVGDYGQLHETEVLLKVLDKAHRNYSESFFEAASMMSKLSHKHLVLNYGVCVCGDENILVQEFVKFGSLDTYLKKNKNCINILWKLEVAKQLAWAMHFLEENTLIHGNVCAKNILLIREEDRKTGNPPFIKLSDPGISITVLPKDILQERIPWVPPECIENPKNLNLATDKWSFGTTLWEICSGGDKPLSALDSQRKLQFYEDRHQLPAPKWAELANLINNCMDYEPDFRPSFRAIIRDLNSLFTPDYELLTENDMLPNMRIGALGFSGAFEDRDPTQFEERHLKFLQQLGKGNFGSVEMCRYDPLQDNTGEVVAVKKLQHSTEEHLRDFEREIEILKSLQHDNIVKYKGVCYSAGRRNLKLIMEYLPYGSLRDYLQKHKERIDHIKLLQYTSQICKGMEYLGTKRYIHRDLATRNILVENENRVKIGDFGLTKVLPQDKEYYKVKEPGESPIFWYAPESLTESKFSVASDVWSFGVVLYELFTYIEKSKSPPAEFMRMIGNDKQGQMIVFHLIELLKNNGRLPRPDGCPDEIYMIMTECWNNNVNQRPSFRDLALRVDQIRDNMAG
T3 sequence (P23458 875-1153 limits assumed): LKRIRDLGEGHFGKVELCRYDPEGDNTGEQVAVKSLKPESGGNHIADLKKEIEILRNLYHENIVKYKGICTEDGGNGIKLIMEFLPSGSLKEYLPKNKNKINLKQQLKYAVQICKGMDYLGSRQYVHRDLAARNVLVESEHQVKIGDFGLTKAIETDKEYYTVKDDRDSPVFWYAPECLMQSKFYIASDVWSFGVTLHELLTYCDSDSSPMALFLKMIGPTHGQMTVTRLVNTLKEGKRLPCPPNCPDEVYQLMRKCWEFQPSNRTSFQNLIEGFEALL
T2 sequence (P52333 822-1111 limits assumed): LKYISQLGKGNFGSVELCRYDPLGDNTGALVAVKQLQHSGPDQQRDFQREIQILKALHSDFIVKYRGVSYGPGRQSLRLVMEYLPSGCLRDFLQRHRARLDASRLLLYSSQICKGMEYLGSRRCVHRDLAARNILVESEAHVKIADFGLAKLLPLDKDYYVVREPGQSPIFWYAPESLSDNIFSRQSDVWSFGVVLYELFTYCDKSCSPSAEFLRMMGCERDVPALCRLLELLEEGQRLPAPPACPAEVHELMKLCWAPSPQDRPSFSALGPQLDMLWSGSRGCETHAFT
T4 sequence (O60674 849-1124 limits assumed): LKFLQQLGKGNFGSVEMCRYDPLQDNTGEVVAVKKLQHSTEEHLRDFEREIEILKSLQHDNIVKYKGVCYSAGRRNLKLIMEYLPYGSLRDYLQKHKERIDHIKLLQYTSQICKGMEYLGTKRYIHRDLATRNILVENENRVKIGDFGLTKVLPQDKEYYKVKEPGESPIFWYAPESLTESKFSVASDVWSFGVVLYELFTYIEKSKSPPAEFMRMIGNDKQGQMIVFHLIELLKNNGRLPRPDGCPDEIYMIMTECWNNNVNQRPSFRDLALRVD
Sequence of Tyk2 kinase activity on STAT4 in NK92 cells (P29597 whole entry): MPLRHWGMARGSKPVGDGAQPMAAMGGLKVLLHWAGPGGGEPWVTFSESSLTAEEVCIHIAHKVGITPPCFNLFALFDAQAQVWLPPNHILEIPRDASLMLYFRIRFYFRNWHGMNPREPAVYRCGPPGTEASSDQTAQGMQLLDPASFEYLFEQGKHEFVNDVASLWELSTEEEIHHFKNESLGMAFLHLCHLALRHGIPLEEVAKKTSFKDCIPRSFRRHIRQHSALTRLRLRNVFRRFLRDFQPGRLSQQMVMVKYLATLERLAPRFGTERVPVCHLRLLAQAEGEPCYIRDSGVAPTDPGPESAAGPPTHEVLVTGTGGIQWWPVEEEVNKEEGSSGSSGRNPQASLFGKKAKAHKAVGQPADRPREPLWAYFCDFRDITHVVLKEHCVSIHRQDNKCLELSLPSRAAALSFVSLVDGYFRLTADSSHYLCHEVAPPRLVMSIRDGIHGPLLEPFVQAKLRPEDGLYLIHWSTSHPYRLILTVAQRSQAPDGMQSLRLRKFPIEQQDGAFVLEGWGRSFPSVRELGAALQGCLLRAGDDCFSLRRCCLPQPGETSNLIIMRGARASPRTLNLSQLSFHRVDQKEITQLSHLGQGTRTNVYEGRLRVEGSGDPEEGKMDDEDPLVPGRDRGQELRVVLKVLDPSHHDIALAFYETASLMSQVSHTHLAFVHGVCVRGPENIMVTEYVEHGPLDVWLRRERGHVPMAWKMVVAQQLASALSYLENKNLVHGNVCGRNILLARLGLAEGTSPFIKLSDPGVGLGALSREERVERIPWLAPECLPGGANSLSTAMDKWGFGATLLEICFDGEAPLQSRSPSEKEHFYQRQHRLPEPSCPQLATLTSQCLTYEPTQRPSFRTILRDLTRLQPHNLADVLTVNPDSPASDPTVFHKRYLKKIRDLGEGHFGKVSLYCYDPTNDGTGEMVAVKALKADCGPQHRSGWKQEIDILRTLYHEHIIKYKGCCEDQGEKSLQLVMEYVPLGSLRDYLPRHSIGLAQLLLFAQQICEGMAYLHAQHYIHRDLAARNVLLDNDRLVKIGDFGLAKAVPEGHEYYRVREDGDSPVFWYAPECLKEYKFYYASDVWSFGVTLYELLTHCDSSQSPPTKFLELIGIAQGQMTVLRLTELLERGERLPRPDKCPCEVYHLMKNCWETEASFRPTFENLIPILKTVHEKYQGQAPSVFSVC
Sequence of JAK1 kinase activity on STAT3 in TF1 cells (P23458 whole entry): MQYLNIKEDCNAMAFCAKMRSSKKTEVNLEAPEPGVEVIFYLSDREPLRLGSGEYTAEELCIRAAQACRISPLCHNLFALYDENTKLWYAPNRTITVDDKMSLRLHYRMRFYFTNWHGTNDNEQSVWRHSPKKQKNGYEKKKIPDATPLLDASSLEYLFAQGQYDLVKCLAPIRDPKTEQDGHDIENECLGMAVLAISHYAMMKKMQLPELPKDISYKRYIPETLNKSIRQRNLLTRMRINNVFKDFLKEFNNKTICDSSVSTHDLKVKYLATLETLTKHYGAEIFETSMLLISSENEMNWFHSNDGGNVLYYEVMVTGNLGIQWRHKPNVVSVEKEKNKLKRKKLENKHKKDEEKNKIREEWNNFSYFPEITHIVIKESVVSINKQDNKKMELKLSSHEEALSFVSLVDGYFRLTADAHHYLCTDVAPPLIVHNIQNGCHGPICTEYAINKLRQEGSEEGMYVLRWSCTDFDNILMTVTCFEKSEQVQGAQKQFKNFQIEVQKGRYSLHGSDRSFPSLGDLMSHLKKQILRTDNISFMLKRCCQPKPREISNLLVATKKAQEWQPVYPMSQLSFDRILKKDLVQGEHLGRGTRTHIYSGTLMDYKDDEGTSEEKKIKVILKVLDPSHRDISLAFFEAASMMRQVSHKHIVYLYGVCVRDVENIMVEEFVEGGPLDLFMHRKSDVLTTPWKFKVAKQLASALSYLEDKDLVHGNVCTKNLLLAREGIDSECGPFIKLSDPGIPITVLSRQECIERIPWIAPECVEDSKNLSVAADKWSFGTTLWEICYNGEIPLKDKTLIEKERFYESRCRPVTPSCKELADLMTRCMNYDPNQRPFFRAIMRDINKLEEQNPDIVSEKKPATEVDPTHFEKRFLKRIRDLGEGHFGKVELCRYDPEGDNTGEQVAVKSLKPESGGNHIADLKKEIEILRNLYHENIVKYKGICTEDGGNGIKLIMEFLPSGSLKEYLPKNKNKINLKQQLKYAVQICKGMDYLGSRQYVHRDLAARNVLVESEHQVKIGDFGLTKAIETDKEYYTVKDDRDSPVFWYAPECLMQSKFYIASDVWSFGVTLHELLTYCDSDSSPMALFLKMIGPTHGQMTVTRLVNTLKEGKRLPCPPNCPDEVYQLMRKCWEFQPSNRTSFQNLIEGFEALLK

Row | IC50 [1] [µM] | IC50 [2] [µM] | IC50 [3] [µM] | IC50 [4] [µM] | IC50 [5] [µM] | IC50 [6] [µM] | IC50 [7] [µM] | SMILES
1 | 0.02 to 0.05 | < 0.005 | 5 to 10 | 1 to 5 | 0.1 to 1 | 0.1 to 1 | 0.1 to 1 | C[C@@H]1CN(c2ccnn3cc(-c4cnn(C)c4)cc23)C(=O)[C@]1(C#N)C1CC1 [Example 34, (3R,4S)-3-cyclopropyl-4-methyl-1-(6-(1-methyl-1H-pyrazol-4-yl)pyrrolo[1,2-b]pyridazin-4-yl)-2-oxopyrrolidine-3-carbonitrile]
2 | 0.02 to 0.05 | < 0.005 | 5 to 10 | 1 to 5 | 0.1 to 1 | 0.1 to 1 | 0.1 to 1 | C[C@@H]1CN(c2ccnn3cc(-c4cnn(C(F)F)c4)cc23)C(=O)[C@]1(C#N)C1CC1 [Example 35, (3R,4S)-3-cyclopropyl-1-(6-(1-(difluoromethyl)-1H-pyrazol-4-yl)pyrrolo[1,2-b]pyridazin-4-yl)-4-methyl-2-oxopyrrolidine-3-carbonitrile]
3 | > 0.1 | 0.005 to 0.02 | 5 to 10 | 1 to 5 | 0.1 to 1 | 0.1 to 1 | 0.1 to 1 | COc1ccc(-c2cc3c(N4C[C@@H](C)[C@@](C#N)(C5CC5)C4=O)ccnn3c2)cn1 [Example 48, (3R,4S)-3-cyclopropyl-1-(6-(6-methoxypyridin-3-yl)pyrrolo[1,2-b]pyridazin-4-yl)-4-methyl-2-oxopyrrolidine-3-carbonitrile]
4 | 0.05 to 0.1 | 0.005 to 0.02 | > 10 | 1 to 5 | 0.1 to 1 | < 0.1 | 0.1 to 1 | C[C@@H]1CN(c2ccnn3cc(-c4ccc5cncn5c4)cc23)C(=O)[C@]1(C#N)C1CC1 [Example 51, (3R,4S)-3-cyclopropyl-1-(6-(imidazo[1,5-a]pyridin-6-yl)pyrrolo[1,2-b]pyridazin-4-yl)-4-methyl-2-oxopyrrolidine-3-carbonitrile]
5 | > 0.1 | 0.005 to 0.02 | > 10 | 5 to 10 | 0.1 to 1 | 0.1 to 1 | 0.1 to 1 | C[C@@H]1CN(c2ccnn3cc(-c4ccc(S(C)(=O)=O)nc4)cc23)C(=O)[C@]1(C#N)C1CC1 [Example 52, (3R,4S)-3-cyclopropyl-4-methyl-1-(6-(6-(methylsulfonyl)pyridin-3-yl)pyrrolo[1,2-b]pyridazin-4-yl)-2-oxopyrrolidine-3-carbonitrile]
6 | > 0.1 | 0.005 to 0.02 | > 10 | 5 to 10 | 0.1 to 1 | 0.1 to 1 | 0.1 to 1 | C[C@@H]1CN(c2ccnn3cc(-c4cncc(O)c4)cc23)C(=O)[C@]1(C#N)C1CC1 [Example 53, (3R,4S)-3-cyclopropyl-1-(6-(5-hydroxypyridin-3-yl)pyrrolo[1,2-b]pyridazin-4-yl)-4-methyl-2-oxopyrrolidine-3-carbonitrile]
7 | > 0.1 | 0.005 to 0.02 | > 10 | 5 to 10 | 0.1 to 1 | 0.1 to 1 | 1 to 5 | C[C@@H]1CN(c2ccnn3cc(-c4cccc5c4cnn5C)cc23)C(=O)[C@]1(C#N)C1CC1 [Example 54, (3R,4S)-3-cyclopropyl-4-methyl-1-(6-(1-methyl-1H-indazol-4-yl)pyrrolo[1,2-b]pyridazin-4-yl)-2-oxopyrrolidine-3-carbonitrile]
8 | 0.005 to 0.02 | < 0.005 | 1 to 5 | 0.1 to 1 | 0.1 to 1 | < 0.1 | 0.1 to 1 | C[C@@H]1CN(c2ccnn3cc(-c4ccc5c(cnn5C)c4)cc23)C(=O)[C@]1(C#N)C1CC1 [Example 55, (3R,4S)-3-cyclopropyl-4-methyl-1-(6-(1-methyl-1H-indazol-5-yl)pyrrolo[1,2-b]pyridazin-4-yl)-2-oxopyrrolidine-3-carbonitrile]
9 | > 0.1 | 0.005 to 0.02 | > 10 | 5 to 10 | 0.1 to 1 | 0.1 to 1 | 0.1 to 1 | C[C@@H]1CN(c2ccnn3cc(-c4cccnc4F)cc23)C(=O)[C@]1(C#N)C1CC1 [Example 56, (3R,4S)-3-cyclopropyl-1-(6-(2-fluoropyridin-3-yl)pyrrolo[1,2-b]pyridazin-4-yl)-4-methyl-2-oxopyrrolidine-3-carbonitrile]
10 | > 0.1 | 0.005 to 0.02 | > 10 | 1 to 5 | 0.1 to 1 | 0.1 to 1 | 0.1 to 1 | C[C@@H]1CN(c2ccnn3cc(-c4ccc5ncnn5c4)cc23)C(=O)[C@]1(C#N)C1CC1 [Example 57, (3R,4S)-1-(6-([1,2,4]triazolo[1,5-a]pyridin-6-yl)pyrrolo[1,2-b]pyridazin-4-yl)-3-cyclopropyl-4-methyl-2-oxopyrrolidine-3-carbonitrile]
11 | 0.05 to 0.1 | 0.005 to 0.02 | > 10 | 1 to 5 | 0.1 to 1 | 0.1 to 1 | 0.1 to 1 | CNC(=O)c1ccc(-c2cc3c(N4C[C@@H](C)[C@@](C#N)(C5CC5)C4=O)ccnn3c2)cn1 [Example 58, 5-(4-((3R,4S)-3-cyano-3-cyclopropyl-4-methyl-2-oxopyrrolidin-1-yl)pyrrolo[1,2-b]pyridazin-6-yl)-N-methylpicolinamide]
12 | 0.05 to 0.1 | < 0.005 | 5 to 10 | 1 to 5 | 0.1 to 1 | < 0.1 | 0.1 to 1 | C[C@@H]1CN(c2ccnn3cc(-c4cn[nH]c4)cc23)C(=O)[C@]1(C#N)C1CC1 [Example 59, (3R,4S)-1-(6-(1H-pyrazol-4-yl)pyrrolo[1,2-b]pyridazin-4-yl)-3-cyclopropyl-4-methyl-2-oxopyrrolidine-3-carbonitrile trifluoroacetate]
13 | > 0.1 | 0.005 to 0.02 | > 10 | 1 to 5 | 0.1 to 1 | 0.1 to 1 | 0.1 to 1 | C[C@@H]1CN(c2ccnn3cc(-c4cccnc4)cc23)C(=O)[C@]1(C#N)C1CC1 [Example 60, (3R,4S)-3-cyclopropyl-4-methyl-2-oxo-1-(6-(pyridin-3-yl)pyrrolo[1,2-b]pyridazin-4-yl)pyrrolidine-3-carbonitrile]
14 | 0.02 to 0.05 | < 0.005 | 5 to 10 | 0.1 to 1 | 0.1 to 1 | < 0.1 | 0.1 to 1 | CC(=O)Nc1cc(-c2cc3c(N4C[C@@H](C)[C@@](C#N)(C5CC5)C4=O)ccnn3c2)ccn1 [Example 61, N-(4-(4-((3R,4S)-3-cyano-3-cyclopropyl-4-methyl-2-oxopyrrolidin-1-yl)pyrrolo[1,2-b]pyridazin-6-yl)pyridin-2-yl)acetamide]
15 | 0.05 to 0.1 | < 0.005 | 1 to 5 | 1 to 5 | 0.1 to 1 | 0.1 to 1 | 0.1 to 1 | C[C@@H]1CN(c2ccnn3cc(-c4ccc(N(C)C)nc4)cc23)C(=O)[C@]1(C#N)C1CC1 [Example 62, (3R,4S)-3-cyclopropyl-1-(6-(6-(dimethylamino)pyridin-3-yl)pyrrolo[1,2-b]pyridazin-4-yl)-4-methyl-2-oxopyrrolidine-3-carbonitrile]
16 | > 0.1 | 0.005 to 0.02 | > 10 | > 10 | 0.1 to 1 | 0.1 to 1 | 0.1 to 1 | C[C@@H]1CN(c2ccnn3cc(-c4ccn(C)n4)cc23)C(=O)[C@]1(C#N)C1CC1 [Example 63, (3R,4S)-3-cyclopropyl-4-methyl-1-(6-(1-methyl-1H-pyrazol-3-yl)pyrrolo[1,2-b]pyridazin-4-yl)-2-oxopyrrolidine-3-carbonitrile]
